The text below walks through data of publication PMC10795512 (Cell reports. Physical science, 2023).

The subject of data set [1] is P. aeruginosa PAO1. In words: MIC, broth microdilution. Format: cell-based, Pseudomonas aeruginosa. The settings on record: LB broth, 5 × 10^5 CFU mL^−1, 24 h at 37°C, OD 600 nm, three replicates. A general note: Dilution methods test growth across graded concentrations, often in twofold steps.
Another data set concerns E. coli ATCC 11775. Nature of the data set: MIC, broth microdilution. The note with it: LB broth, 5 × 10^5 CFU mL^−1, 24 h at 37°C, OD 600 nm, three replicates. Format: cell-based, Escherichia coli.
The test system of another data set is P. aeruginosa PA14. Nature of the data set: MIC, broth microdilution. Format: cell-based, Pseudomonas aeruginosa. The settings on record: LB broth, 5 × 10^5 CFU mL^−1, 24 h at 37°C, OD 600 nm, three replicates.
A further data set has as its system human erythrocytes. The note with it: at a concentration of 10^−4 mol L^−1; cited from earlier work.
The next data set has as its system S. aureus ATCC 12600. In words: MIC, broth microdilution. The data set is classed as cell-based, Staphylococcus aureus. The note with it: LB broth, 5 × 10^5 CFU mL^−1, 24 h at 37°C, OD 600 nm, three replicates.
The test system of another data set is mouse erythrocytes. The note with it: at a concentration of 10^−4 mol L^−1; cited from earlier work.
In data set [2] the test system is P. aeruginosa PAO1. In words: Synergy. The data set is classed as cell-based, Pseudomonas aeruginosa. The settings on record: checkerboard; for FICI, combined with PMB: 2- to 0.03-fold MIC, 24 h at 37°C, three replicates; for FICI, WT1 and WT2 in combination: different concentrations.
Data set [3] relates to human embryonic kidney (HEK) cells (ATCC HEK293T). In words: Cytotoxicity, XTT assay. The data set is classed as cell-based.
For data set [4], the system named is primary human keratinocytes. In words: Cytotoxicity, XTT assay. The data set is classed as cell-based. The settings on record: for toxicity: at the highest concentration tested, 64 μmol L^−1, 24 h. (Formazan colour is commonly taken as a measure of viable cells.)
The test system of data set [5] is E. coli JW2703 (hypermutant strain) ΔmutS::kan. Nature of the data set: Resistance development assay. Format: cell-based, Escherichia coli. The settings on record: over the same period (20 days).

Where no end group is shown, it is not given here.

As usually defined, the MIC is the lowest concentration that inhibits growth of the organism. A low value points to greater potency.

Turning to “LKLLGIVKKVLGAI-NH2 [WT2, reference compound]”, the MIC is 32 µM against P. aeruginosa PAO1 [1], 16 µM in the data set on E. coli ATCC 11775, 64 µM against P. aeruginosa PA14 and 32 µM in the data set with S. aureus ATCC 12600. The hemolytic activity entry in the data set on human erythrocytes and in the data set with mouse erythrocytes was “hemolytic activity” throughout. The “FICI, combined with PMB” value in the data set on P. aeruginosa PAO1 [2] was determined as 0.5. Also, the “FICI, WT1 and WT2 in combination” value with P. aeruginosa PAO1 [2] was found to be 0.7.

For the substance LKLLGIVKKKLGAI-NH2 [K10–2], the minimal inhibitory concentration (MIC) in the data set with P. aeruginosa PAO1 [1] is 4 µM; with E. coli ATCC 11775, 4 µM; in the data set on P. aeruginosa PA14, 8 µM; against S. aureus ATCC 12600, 8 µM. Also, in data set [3] (at 16 μmol L^−1, 24 h), the toxicity entry is reported as “no toxicity”. The cell viability remaining in [4] (at 8 μmol L^−1, 24 h) came out at 92%.

On to LKLMGIVKKVLAAL-NH2 [A12–1], for which the minimum inhibitory concentration (MIC) against E. coli ATCC 11775 and against S. aureus ATCC 12600 was 2 µM throughout.

For LKLAGIVKKVLGAL-NH2 [A4–1], the minimal inhibitory concentration (MIC) against E. coli ATCC 11775 stood at 4 µM; with S. aureus ATCC 12600 it was 8 µM.

LKLLGIVKKVLAAI-NH2 [A12–2]: the MIC in the data set with E. coli ATCC 11775 came out at 4 µM; in the data set on S. aureus ATCC 12600, 2 µM.

For the substance LKLMAIVKKVLGAL-NH2 [A5–1], the minimal inhibitory concentration (MIC) in the data set on E. coli ATCC 11775 and in the data set with S. aureus ATCC 12600 was 4 µM throughout.

For LKLLAIVKKVLGAI-NH2 [A5–2], the MIC in the data set on E. coli ATCC 11775 and in the data set on S. aureus ATCC 12600 was 4 µM in each case.

As to LKLMGIVKKVLGKL-NH2 [K13–1], the MIC with P. aeruginosa PAO1 [1] was 8 µM; against E. coli ATCC 11775, 4 µM; against P. aeruginosa PA14 it was 16 µM; against S. aureus ATCC 12600, 128 µM. For the same substance, the toxicity result is reported as “toxic” in data set [3] (at 4-fold MIC, 24 h) and “low toxicity” in data set [4]. Also, the “FICI, combined with PMB” value with P. aeruginosa PAO1 [2] turned out to be 0.6.

LKLLGIVKKVLGKI-NH2 [K13–2]: the minimum inhibitory concentration (MIC) against P. aeruginosa PAO1 [1] was 4 µM; against E. coli ATCC 11775, 4 µM; against P. aeruginosa PA14, 16 µM. Besides, the toxicity entry was “no toxicity” in data set [3] (any of the concentrations tested (1 to 64 μmol L^−1), 24 h) and “low toxicity” in data set [4].

Take “LKLMGIVKKVLGAL-NH2 [WT1, reference compound]”: the minimal inhibitory concentration (MIC) in the data set with P. aeruginosa PAO1 [1] turned out to be 32 µM; with E. coli ATCC 11775, 8 µM; in the data set with P. aeruginosa PA14, 32 µM; against S. aureus ATCC 12600 it was 16 µM. Also, the hemolytic activity result in the data set with human erythrocytes and in the data set with mouse erythrocytes was “hemolytic activity” in each case. Further, the “FICI, combined with PMB” value in the data set with P. aeruginosa PAO1 [2] is reported as 0.7. Moreover, the “FICI, WT1 and WT2 in combination” value in the data set on P. aeruginosa PAO1 [2] is recorded as 0.7.

With polymyxin B [PMB], the “change of MIC during resistance assay” value in data set [5] is “did not vary significantly”.

In the case of AKLMGIVKKVLGAL-NH2 [A1–1], the MIC against P. aeruginosa PAO1 [1] came to 16 µM; against E. coli ATCC 11775, 4 µM; with P. aeruginosa PA14 it was 16 µM; with S. aureus ATCC 12600 it was 8 µM.
